Experiment: molar heat capacity at constant pressure
Conditions: 101.33 kPa, Liquid, Small sample (50 mg) DSC

CC(=O)[O-].CCCCn1cc[n+](C)c1 [1-butyl-3-methylimidazolium acetate]
Conditions	molar heat capacity at constant pressure [J/K/mol]
253.15 K	359.54
258.15 K	361.57
263.15 K	363.69
268.15 K	365.9
273.15 K	368.21
278.15 K	370.61
283.15 K	373.1
293.15 K	378.36
298.15 K	381.12
303.15 K	383.98
313.15 K	389.98
323.15 K	396.35
333.15 K	403.09
343.15 K	410.2
353.15 K	417.68
363.15 K	425.53
373.15 K	433.75
383.15 K	442.34
393.15 K	451.3
403.15 K	460.63
413.15 K	470.33
